Assay results taken from patent US20250230193A1, “CYCLIC COMPOUND HAVING SELECTIVE KRAS INHIBITORY EFFECT ON HRAS AND NRAS” (CHUGAI SEIYAKU KABUSHIKI KAISHA, priority 2022, published 2025).

What was measured:
[1] = molecular target: GDP-bound NRAS wild-type protein (Homo sapiens, UniProt P01111); test: Binding to NRAS by surface plasmon resonance (SPR), Single Cycle Kinetics; conditions: SPR
[2] = molecular target: GDP-bound HRAS wild-type protein (Homo sapiens, UniProt P01112); test: Binding to HRAS by surface plasmon resonance (SPR), Single Cycle Kinetics; conditions: SPR
Chain of GDP-bound HRAS wild-type protein (P01112 whole entry): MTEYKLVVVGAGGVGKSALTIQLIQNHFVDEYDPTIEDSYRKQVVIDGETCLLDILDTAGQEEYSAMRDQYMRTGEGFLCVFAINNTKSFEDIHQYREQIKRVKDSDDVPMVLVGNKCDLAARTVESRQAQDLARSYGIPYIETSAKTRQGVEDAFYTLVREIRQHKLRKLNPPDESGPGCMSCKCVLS

[3] = KD ratio, GDP-bound NRAS wild-type vs GDP-bound KRAS wild-type
[4] = KD ratio, GDP-bound HRAS wild-type vs GDP-bound KRAS wild-type
[5] = GDP-bound NRAS wild-type vs GDP-bound KRAS wild-type
[6] = GDP-bound HRAS wild-type vs GDP-bound KRAS wild-type

Chain of GDP-bound NRAS wild-type protein (P01111 whole entry): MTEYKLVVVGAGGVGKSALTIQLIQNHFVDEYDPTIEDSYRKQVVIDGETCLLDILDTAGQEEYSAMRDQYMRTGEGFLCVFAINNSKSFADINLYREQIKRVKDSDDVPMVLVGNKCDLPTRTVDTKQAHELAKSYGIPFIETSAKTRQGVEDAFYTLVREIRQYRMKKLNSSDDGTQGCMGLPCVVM

## CC[C@H](C)[C@@H]1NC(=O)[C@H](CC(F)(F)F)N(C)C(=O)C[C@@H](C(=O)N(C)C)N(C)C(=O)[C@H](C2CCCC2)N(C)C(=O)C2(CC(C)(C)C2)NC(=O)[C@@H]2CCCN2C(=O)[C@H](CCc2cc(F)c(C(F)(F)F)c(F)c2)NC(=O)CN(C)C(=O)[C@H](Cc2ccc(C(F)(F)F)cc2)N2CC/C=C\C[C@@H](C2=O)N(C)C(=O)CN(C)C1=O [PP1722]
[1]; [3]
  NRAS/KRAS (ratio of KD value for NRAS to KD value for KRAS): AA (a compound having 20 or more is denoted as AA)
[2]; [4]
  HRAS/KRAS (ratio of KD value for HRAS to KD value for KRAS): A (a compound having 10 or more and less than 20 is denoted as A)

## CCC[C@H]1C(=O)N[C@@H](C2CCCCC2)C(=O)N(C)CC(=O)N(C)[C@H]2C/C=C\CCN(C2=O)[C@@H](Cc2ccc(C(F)(F)F)cc2)C(=O)N(C)CC(=O)N[C@@H](CCc2ccc(C(F)(F)F)c(Cl)c2)C(=O)N2C[C@H](OCC)C[C@H]2C(=O)NC2(CC(C)(C)C2)C(=O)N(C)[C@@H](C2CCCC2)C(=O)N(C)[C@H](C(=O)N(C)C)CC(=O)N1C [PP2996]
[1]; GDP-bound wild-type proteins
  NRAS/KRAS (ratio of KD value with respect to GDP-bound NRAS wild-type protein to KD value with respect to KRAS): AA (a compound having 20 or more is denoted as AA)
[2]; GDP-bound wild-type proteins
  HRAS/KRAS (ratio of KD value with respect to GDP-bound HRAS wild-type protein to KD value with respect to KRAS): A (a compound having 10 or more and less than 20 is denoted as A)

## CCO[C@@H]1C[C@H]2C(=O)NC3(CCC3)C(=O)N(C)[C@@H](C3CCCC3)C(=O)N(CC)[C@H](C(=O)N3CCOCC3)CC(=O)N(C)[C@@H](CC(C)C)C(=O)N[C@@H]([C@@H](C)CC)C(=O)N(C)CC(=O)N(C)[C@H]3CCCCN(C3=O)[C@@H](Cc3ccc(C(F)(F)F)cc3)C(=O)N(C)CC(=O)N[C@@H](CCc3cc(F)c(C(F)(F)F)c(F)c3)C(=O)N2C1 [PP0648]
[1]
  NRAS/KRAS (ratio of KD value with respect to GDP-bound NRAS wild-type protein to KD value with respect to KRAS): B (a compound having 3 or more and less than 10 is denoted as B)
[2]
  HRAS/KRAS (ratio of KD value with respect to GDP-bound HRAS wild-type protein to KD value with respect to KRAS): B (a compound having 3 or more and less than 10 is denoted as B)

## CCO[C@@H]1C[C@H]2C(=O)NC3(CC(C)(C)C3)C(=O)N(C)[C@@H](C(CC)CC)C(=O)N(C)[C@H](C(=O)N(C)C)CC(=O)N(C)[C@@H](COC)C(=O)N[C@@H]([C@@H](C)CC)C(=O)N(C)CC(=O)N(C)[C@H]3C/C=C\CCN(C3=O)[C@@H](CC3CCC(F)(F)CC3)C(=O)N(C)CC(=O)N[C@@H](CCc3cc(F)c(C(F)(F)F)c(F)c3)C(=O)N2C1 [PP2440]
[1]; [5]
  NRAS/KRAS (ratio of KD value with respect to NRAS to KD value with respect to KRAS): A (a compound having 10 or more and less than 20 is denoted as A)
[2]; [6]
  HRAS/KRAS (ratio of KD value with respect to HRAS to KD value with respect to KRAS): A (a compound having 10 or more and less than 20 is denoted as A)

## CCO[C@@H]1C[C@H]2C(=O)NC3(CCC3)C(=O)N(C)[C@@H](C3CCCC3)C(=O)N(C)[C@H](C(=O)N(C)C)CC(=O)N(C)[C@@H](Cc3ccccc3C#N)C(=O)N[C@@H]([C@@H](C)CC)C(=O)N(C)CC(=O)N(C)[C@H]3CCCCCN(C3=O)[C@@H](Cc3ccc(C(F)(F)F)cc3)C(=O)N(C)CC(=O)N[C@@H](CCc3cc(F)c(C(F)(F)F)c(F)c3)C(=O)N2C1 [PP1171]
[1]; [3]
  NRAS/KRAS (ratio of KD value with respect to NRAS to KD value with respect to KRAS): B (a compound having 3 or more and less than 10 is denoted as B)
[2]; [4]
  HRAS/KRAS (ratio of KD value with respect to HRAS to KD value with respect to KRAS): B (a compound having 3 or more and less than 10 is denoted as B)

## CC[C@H](C)[C@@H]1NC(=O)[C@H](CC(C)C)N(C)C(=O)C[C@@H](C(=O)N2CCOCC2)N(C)C(=O)[C@H](C2CCCC2)N(C)C(=O)C2(CCCC2)NC(=O)[C@@H]2CCCN2C(=O)[C@H](CCc2ccc(C(F)(F)F)c(Cl)c2)NC(=O)CN(C)C(=O)[C@H](Cc2ccc(C(F)(F)F)cc2)N2CC=CC[C@@H](C2=O)N(C)C(=O)CN(C)C1=O [PP0462]
[1]
  NRAS/KRAS (ratio of KD value with respect to GDP-bound NRAS wild-type protein to KD value with respect to KRAS): C (A compound having a KD ratio of 0.1 or more and less than 3 is denoted as C)
[2]
  HRAS/KRAS (ratio of KD value with respect to GDP-bound HRAS wild-type protein to KD value with respect to KRAS): C (A compound having a KD ratio of 0.1 or more and less than 3 is denoted as C)

## CCO[C@@H]1C[C@H]2C(=O)NC3(CC(C)(C)C3)C(=O)N(C)[C@@H](C(CC)CC)C(=O)N(C)[C@H](C(=O)N(C)C)CC(=O)N(C)[C@@H](COC)C(=O)N[C@@H]([C@@H](C)CC)C(=O)N(C)CC(=O)N(C)[C@H]3C/C=C\CCN(C3=O)[C@@H](CC3CCCCC3)C(=O)N(C)CC(=O)N[C@@H](CCc3cc(F)c(C(F)(F)F)c(F)c3)C(=O)N2C1 [PP2456]
[1]; [5]
  NRAS/KRAS (ratio of KD value with respect to NRAS to KD value with respect to KRAS): A (a compound having 10 or more and less than 20 is denoted as A)
[2]; [6]
  HRAS/KRAS (ratio of KD value with respect to HRAS to KD value with respect to KRAS): A (a compound having 10 or more and less than 20 is denoted as A)
